# According to PMC6523814, “Small-Molecule Host-Defense Peptide Mimetic Antibacterial and Antifungal Agents Activate Human and Mouse Mast Cells via Mas-Related GPCRs” (Cells, 2019):
# System: Candida albicans (ATCC GDH2346)
# Test: Fungus MIC assay (CLSI C27-A3)
# Type: cell-based
# Conditions: Candida albicans; RPMI/MOPS pH 7.0, 35 °C, 48 h
# Method: (§1) Fungal strains included a clinical isolate of Candida albicans (ATCC GDH2346), Aspergillus fumigatus (ATCC MYA-3626), and Aspergillus flavus (ATCC 204304). Minimum inhibitory concentration (MIC) assays were carried out in 96-well plates using the Clinical and Laboratory Standards Institute (CLSI) method C27-A3 for C. albicans and M38-A2 for Aspergillus species. smHDPMs, each in stock solutions of 10 mM in DMSO, were diluted in 50 µL RPMI/MOPS pH 7.0 in a 96-well plate and 50 µL of diluted yeast were added to each well. […] The plate was then incubated at 35 °C for 48 h. […] All MIC assays were performed in duplicate.
row,Compound,MIC
1,Cc1c(-c2ccc(N3CCNCC3)cc2)ncnc1-c1ccc(N2CCNCC2)cc1 [Compound 4],> 100 µg/mL
2,N=C(N)N1CC=C(c2ccc(-c3nnc(-c4ccc(C5=CCN(C(=N)N)CC5)cc4)o3)cc2)CC1 [Compound 2],0.39 µg/mL

# Same assay, conditions: RPMI/MOPS pH 7.0, 35 °C, 48 h
row,Compound,MIC C. albicans
1,N=C(N)N1CC=C(c2ccc(-c3nnc(-c4ccc(C5=CCN(C(=N)N)CC5)cc4)o3)cc2)CC1 [Compound 2],0.39 µg/mL

# System: Aspergillus flavus (ATCC 204304)
# Test: Fungus MIC assay (CLSI M38-A2)
# Type: cell-based
# Conditions: Aspergillus flavus, ATCC204304; RPMI/MOPS pH 7.0, 35 °C, 48 h
# Method: as §1
row,Compound,MIC
1,Cc1c(-c2ccc(N3CCNCC3)cc2)ncnc1-c1ccc(N2CCNCC2)cc1 [Compound 4],> 100 µg/mL
2,N=C(N)N1CC=C(c2ccc(-c3nnc(-c4ccc(C5=CCN(C(=N)N)CC5)cc4)o3)cc2)CC1 [Compound 2],0.39 µg/mL

# Same assay, conditions: RPMI/MOPS pH 7.0, 35 °C, 48 h
row,Compound,MIC A. flavus
1,N=C(N)N1CC=C(c2ccc(-c3nnc(-c4ccc(C5=CCN(C(=N)N)CC5)cc4)o3)cc2)CC1 [Compound 2],0.39 µg/mL

# System: Aspergillus fumigatus (ATCC MYA-3626)
# Test: Fungus MIC assay (CLSI M38-A2)
# Type: cell-based
# Conditions: Aspergillus fumigatus; RPMI/MOPS pH 7.0, 35 °C, 48 h
# Method: as §1
row,Compound,MIC
1,Cc1c(-c2ccc(N3CCNCC3)cc2)ncnc1-c1ccc(N2CCNCC2)cc1 [Compound 4],> 100 µg/mL
2,N=C(N)N1CC=C(c2ccc(-c3nnc(-c4ccc(C5=CCN(C(=N)N)CC5)cc4)o3)cc2)CC1 [Compound 2],0.39 µg/mL

# Same assay, conditions: RPMI/MOPS pH 7.0, 35 °C, 48 h
row,Compound,MIC A. fumigatus
1,N=C(N)N1CC=C(c2ccc(-c3nnc(-c4ccc(C5=CCN(C(=N)N)CC5)cc4)o3)cc2)CC1 [Compound 2],0.39 µg/mL

# System: Enterococcus faecalis [ATCC 29212]
# Test: Bacterial MIC assay (Hancock modified broth assay)
# Type: cell-based
# Conditions: ATCC29212, cation-adjusted Mueller–Hinton, 18 h
# Method: (§2) were tested for antibacterial activities against three Gram-negative bacteria (Escherichia coli [ATCC 25922], Pseudomonas aeruginosa [ATCC 10145], and Klebsiella pneumonia [ATCC 13883]) and two Gram-positive bacteria (Staphylococcus aureus [ATCC 27660] and Enterococcus faecalis [ATCC 29212]) using the Hancock modified broth assay. Three milliliters cation-adjusted Mueller-Hinton medium was inoculated with 20 μL of frozen bacterial stock and incubated at 37 °C on a shaker platform (250 rpm) overnight. […] All samples were done in duplicate. One set of control wells included broth-only samples with dilution buffer for testing sterility and providing blank values for the assay readings. Vehicle-control wells containing the bacterial suspension with DMSO (no compound) were also included. Following the overnight incubation (18 h), the cell growth was assessed by observing the presence of “acceptable growth”, defined by CLSI as a ≥2 mm button or definite turbidity. MIC was defined as the lowest concentration where acceptable growth is not observed.
row,Compound,MIC
1,Cc1c(-c2ccc(N3CCNCC3)cc2)ncnc1-c1ccc(N2CCNCC2)cc1 [Compound 4],> 100 µg/mL
2,N=C(N)N1CC=C(c2ccc(-c3nnc(-c4ccc(C5=CCN(C(=N)N)CC5)cc4)o3)cc2)CC1 [Compound 2],> 100 µg/mL

# System: Escherichia coli [ATCC 25922]
# Test: Bacterial MIC assay (Hancock modified broth assay)
# Type: cell-based
# Conditions: Escherichia coli, ATCC25922; cation-adjusted Mueller–Hinton, 18 h
# Method: as §2
row,Compound,MIC
1,Cc1c(-c2ccc(N3CCNCC3)cc2)ncnc1-c1ccc(N2CCNCC2)cc1 [Compound 4],> 100 µg/mL
2,N=C(N)N1CC=C(c2ccc(-c3nnc(-c4ccc(C5=CCN(C(=N)N)CC5)cc4)o3)cc2)CC1 [Compound 2],3.1 µg/mL

# Same assay, conditions: cation-adjusted Mueller–Hinton, 18 h
row,Compound,Bacterial MIC Escherichia coli
1,N=C(N)N1CC=C(c2ccc(-c3nnc(-c4ccc(C5=CCN(C(=N)N)CC5)cc4)o3)cc2)CC1 [Compound 2],3.1 µg/mL

# System: Klebsiella pneumonia [ATCC 13883]
# Test: Bacterial MIC assay (Hancock modified broth assay)
# Type: cell-based
# Conditions: Klebsiella pneumoniae, ATCC13883; cation-adjusted Mueller–Hinton, 18 h
# Method: as §2
row,Compound,MIC
1,Cc1c(-c2ccc(N3CCNCC3)cc2)ncnc1-c1ccc(N2CCNCC2)cc1 [Compound 4],> 100 µg/mL
2,N=C(N)N1CC=C(c2ccc(-c3nnc(-c4ccc(C5=CCN(C(=N)N)CC5)cc4)o3)cc2)CC1 [Compound 2],> 100 µg/mL

# System: Pseudomonas aeruginosa [ATCC 10145]
# Test: Bacterial MIC assay (Hancock modified broth assay)
# Type: cell-based
# Conditions: ATCC10145, cation-adjusted Mueller–Hinton, 18 h
# Method: as §2
row,Compound,MIC
1,Cc1c(-c2ccc(N3CCNCC3)cc2)ncnc1-c1ccc(N2CCNCC2)cc1 [Compound 4],> 100 µg/mL
2,N=C(N)N1CC=C(c2ccc(-c3nnc(-c4ccc(C5=CCN(C(=N)N)CC5)cc4)o3)cc2)CC1 [Compound 2],> 100 µg/mL

# System: Staphylococcus aureus [ATCC 27660]
# Test: Bacterial MIC assay (Hancock modified broth assay)
# Type: cell-based
# Conditions: Staphylococcus aureus, ATCC27660; cation-adjusted Mueller–Hinton, 18 h
# Method: as §2
row,Compound,MIC
1,Cc1c(-c2ccc(N3CCNCC3)cc2)ncnc1-c1ccc(N2CCNCC2)cc1 [Compound 4],> 100 µg/mL
2,N=C(N)N1CC=C(c2ccc(-c3nnc(-c4ccc(C5=CCN(C(=N)N)CC5)cc4)o3)cc2)CC1 [Compound 2],0.1 µg/mL

# Same assay, conditions: cation-adjusted Mueller–Hinton, 18 h
row,Compound,Bacterial MIC Staphylococcus aureus
1,N=C(N)N1CC=C(c2ccc(-c3nnc(-c4ccc(C5=CCN(C(=N)N)CC5)cc4)o3)cc2)CC1 [Compound 2],0.1 µg/mL

# System: not listed separately
# Test: Cytotoxicity, MTS viability assay
# Type: cell-based, mouse
# Conditions: mouse, 3T3 fibroblasts (ATCC CRL-1658); 1 h exposure in serum-free medium, MTS
# Method: (§3) Cytotoxicity (50% […] concentration, CC50) was determined against mouse 3T3 fibroblasts (ATCC CRL-1658) and human transformed liver HepG2 cells (ATCC HB-8065) using an MTS viability assay according to the manufacturer’s protocol (Promega CellTiter 96 aqueous nonradioactive cell proliferation assay). Briefly, 3T3 cells were seeded at 2 × 10^4 cells/well in Dulbecco’s modified Eagle’s medium (DMEM) supplemented with 10% bovine calf serum and HepG2 cells were seeded at 3 × 10^4 cells/well in MEM supplemented with 10% fetal bovine serum. After 24 h of growth, the culture medium was replaced with medium lacking serum, and eight two-folds dilutions of each of the five compounds were added. […] Following incubation for 1 h at 37 °C, compound solutions were removed and medium containing serum was replenished. Viability was determined by addition of the tetrazolium compound, MTS, and the electron coupling agent, PMS, and then incubation at 37 °C for 2 h (3T3 cells) or 3 h (HepG2 cells) followed by absorbance measurements at 490 nm. The CC50 was calculated using GraphPad Prism software (nonlinear fit).
row,Compound,CC50 at 1 h
1,Cc1c(-c2ccc(N3CCNCC3)cc2)ncnc1-c1ccc(N2CCNCC2)cc1 [Compound 4],883 µM
2,N=C(N)N1CC=C(c2ccc(-c3nnc(-c4ccc(C5=CCN(C(=N)N)CC5)cc4)o3)cc2)CC1 [Compound 2],124 µM

# System: mouse 3T3 fibroblasts (ATCC CRL-1658)
# Test: Cytotoxicity, MTS viability assay
# Type: cell-based
# Conditions: not given
# Method: as §3
row,Compound,cytotoxic effects on 3T3 cells at concentrations relevant for antifungal activity
1,N=C(N)N1CC=C(c2ccc(-c3nnc(-c4ccc(C5=CCN(C(=N)N)CC5)cc4)o3)cc2)CC1 [Compound 2],little to no cytotoxic effects

# Same assay, conditions: CC50 in 3T3 and HepG2 cells relative to Compound 2
row,Compound,fold less cytotoxic than Compound 2
1,Cc1c(-c2ccc(N3CCNCC3)cc2)ncnc1-c1ccc(N2CCNCC2)cc1 [Compound 4],2–10 fold

# System: not listed separately
# Test: Cytotoxicity, MTS viability assay
# Type: cell-based, human
# Conditions: human, HepG2 cells (ATCC HB-8065); 1 h exposure in serum-free medium, MTS
# Method: as §3
row,Compound,CC50 at 1 h
1,Cc1c(-c2ccc(N3CCNCC3)cc2)ncnc1-c1ccc(N2CCNCC2)cc1 [Compound 4],> 1560 µM
2,N=C(N)N1CC=C(c2ccc(-c3nnc(-c4ccc(C5=CCN(C(=N)N)CC5)cc4)o3)cc2)CC1 [Compound 2],151 µM

# System: human transformed liver HepG2 cells (ATCC HB-8065)
# Test: Cytotoxicity, MTS viability assay
# Type: cell-based
# Conditions: not given
# Method: as §3
row,Compound,cytotoxic effects on HepG2 cells at concentrations relevant for antifungal activity
1,N=C(N)N1CC=C(c2ccc(-c3nnc(-c4ccc(C5=CCN(C(=N)N)CC5)cc4)o3)cc2)CC1 [Compound 2],little to no cytotoxic effects

# Target: T1, MRGPRX2 (Homo sapiens, UniProt Q96LB1)
# T1 construct: HA (hemagglutinin)
# T1 sequence (Q96LB1 1-330): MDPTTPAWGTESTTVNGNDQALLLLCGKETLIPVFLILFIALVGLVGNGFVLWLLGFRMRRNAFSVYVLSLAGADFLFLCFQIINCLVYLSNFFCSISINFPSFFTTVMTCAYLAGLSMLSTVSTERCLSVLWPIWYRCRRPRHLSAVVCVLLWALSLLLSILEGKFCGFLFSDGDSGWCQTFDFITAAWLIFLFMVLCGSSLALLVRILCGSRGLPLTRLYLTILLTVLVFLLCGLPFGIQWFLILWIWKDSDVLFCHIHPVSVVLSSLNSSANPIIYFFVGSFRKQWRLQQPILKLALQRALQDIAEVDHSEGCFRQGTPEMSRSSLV
# Test: Degranulation (β-hexosaminidase release) in RBL-2H3 cells expressing MRGPRX2
# Type: cell-based
# Conditions: 3 µM, 30 min, RBL-2H3 cells stably expressing MRGPRX2
# Method: The human mast cell line, LAD2, was maintained in complete StemPro-34 medium supplemented with L-glutamine (2 mM), penicillin (100 IU/mL), streptomycin (100 μg/mL), and 100 ng/mL recombinant human stem cell factor (rhSCF). Hemidepletions were performed weekly with media containing rhSCF (100 ng/mL). Rat basophilic leukemia (RBL-2H3) cells were maintained as monolayer cultures in DMEM supplemented with 10% FBS, L-glutamine (2 mM), penicillin (100 IU/mL), and streptomycin (100 μg/mL). Peritoneal mast cells (PMCs) were obtained from 6–8 weeks old C57BL/6 and Mrgprb2^-/- (C57BL/6 background) mice using i.p. injection of 8 mL MC disassociation medium that was made of HBSS with 3% FCS and 10 mM HEPES. The cells were cultured in Iscove’s Modified Dulbecco’s Medium (IMDM) supplemented with 10% FCS, murine IL-3 (10 ng/mL), and murine SCF (30 ng/mL). After 48 h, the medium and the suspended cells were removed and replaced with fresh medium containing murine IL-3 (10 ng/mL) and murine SCF (30 ng/mL). The floating cells were then used for the experiment within 2–3 weeks. Bone-marrow-derived mast cells (BMMCs) were harvested by flushing bone marrow cells from the femurs of C57BL/6 mice and culturing the cells for 4–8 weeks in IMDM supplemented with 10% FCS, murine IL-3 (10 ng/mL). The cells were then used within 4–8 weeks.
# Cells (2 ×10^6) were transfected with plasmids (2 µg/µL) encoding MRGPRX2 or MRGPRX2 missense mutants using the Amaxa kit V using Amaxa Nucleofector device according to the manufacturer’s protocol. For stable transfection, cells were cultured in the presence of G-418 (1 mg/mL) and used within one month of transfection. For transient transfection, cells were used within 16–20 h after transfection. To detect MRGPRX2 expression, cells (1 × 10^6) were incubated with the PE-conjugated anti-MRGPRX2 antibody, washed in FACS buffer, fixed, and analyzed on a BD LSR II flow cytometer.
# RBL-2H3 cells (5 × 10^4), LAD2 cells (10 × 10^4), and PMCs (5 × 10^3), BMMCs (5 × 10^4), were seeded into 96-well plates in a total volume of 50 μl HEPES buffer containing 0.1% bovine serum albumin (BSA) and exposed to ligands for 30 min. Cells without treatment were designated as control. In some experiments, cells were treated with Pertussis toxin (PTx). For total β-hexosaminidase release, unstimulated cells were lysed in 50 μl of 0.1% Triton X-100. Aliquots (20 μl) of supernatants or cell lysates were incubated with 20 μl of 1 mM p-nitrophenyl-N-acetyl-β- D-glucosamine for 1 h at 37 °C. The reaction was stopped by adding 250 μl of a 0.1 M Na2CO3/0.1 M NaHCO3 buffer and absorbance was measured at 405 nm.
row,Compound,percentage degranulation (β-hexosaminidase release)
1,Cc1c(-c2ccc(N3CCNCC3)cc2)ncnc1-c1ccc(N2CCNCC2)cc1 [Compound 4],20–25%

# Same assay, conditions: RBL-2H3 cells stably expressing MRGPRX2, 30 min
row,Compound,EC50
1,Cc1c(-c2ccc(N3CCNCC3)cc2)ncnc1-c1ccc(N2CCNCC2)cc1 [Compound 4],0.4 µM
2,N=C(N)N1CC=C(c2ccc(-c3nnc(-c4ccc(C5=CCN(C(=N)N)CC5)cc4)o3)cc2)CC1 [Compound 2],3 µM
